Measured values from patent US6978572B1, “Method and device for attracting insects” (Colorado State University Research Foundation, priority 1998, dated 2005).
Several values for one entry are separate records, joined by “and”; a condition that tells them apart may be missing. Identical values can stand only once. Entries after “also recorded” stand apart in the source; their conditions may differ. Like-named read-outs stand apart in the source and are kept apart here.

Assays:
[1] = tested on: western corn root worm larvae
[2] = tested on: Reticulitermes virginicus; experiment: T-tube choice-test behavioral bioassay with CO2; type: in vivo; settings: versus ambient air
Experimental: (§1) Behavioral bioassay apparatus: The choice-test bioassay apparatus was constructed from a glass T-tube (5 mm inside diameter, 5 mm stem, with each branch 4.5 cm long). Each branch of the ‘T’ was bent downward (2.5 cm from the junction of the ‘T’) at a 45° angle to form a pitfall trap. A 5 mm NMR cap (cat. no. 100-0050, Drummond Scientific, Broomall, Pa.) with a 1 mm pinhole in it was firmly pushed over the end of each bent branch. A 25 cm length of Teflon tubing (0.8 mm inside diameter) was inserted 3 mm into the hole in each NMR cap and the other end of the tubing was connected to a 35 ml polyethylene syringe (cat. no. 106-0490, Sherwood Medical, St. Louis, Mo.). The two 35-ml syringes were connected to a syringe pump which was adjusted to provide an airflow of 1 ml per min into each choice arm of the bioassay apparatus. Mixtures of CO2 and ambient air were tested to determine the termite response to a range of CO2 concentrations. A 35-ml syringe was rinsed with distilled water and partially filled (5 ml) with ambient air. Different amounts of 100% CO2 were obtained with a smaller glass syringe from a tank and injected into the 35-ml syringe. Ambient air was then drawn into the 35-ml syringe to fill it and mix the gases by turbulence as the syringe was loaded. A 2nd 35-ml polyethylene syringe was filled with ambient air for a control. Measurements with GC-MS-SIM confirmed that the CO2 concentrations reached equilibrium after 15 min. The CO2 concentration of the syringes was determined by using GC-MS-SIM analysis (see below) before each bioassay. Bioassays were conducted with both Reticulitermes tibialis and Reticulitermes flavipes for 1, 2, 5, 10, 20, 50 and 500 mmol per mol concentrations of CO2 and with Reticulitermes virginicus for 5, 10, 20, and 50 mmol per mol. Procedure: For bioassays, termite workers were collected from plastic tubs by using a camel's hair brush and were placed into a holding container constructed from a 3 cm length of Teflon tubing (8 mm inside diameter). The container was plugged at one end with a NMR cap with two holes (1 mm) drilled in the bottom. A second NMR cap with a 4 mm hole was inserted backwards into the other end of the Teflon tube. The end of the NMR cap was sealed with a small square of cellophane held in place with a plastic tube (a piece of plastic soda straw) that fit snugly over the open end. Termites (5 workers) were placed in the container and the top was sealed. The container was placed horizontally and left undisturbed for 20 min. The T-tube apparatus was assembled and clamped horizontally on top of a block of foam rubber (12 by 12 cm) with a wire bent into a U-shape. The syringe pump was turned on, and after 3 min of pumping, the cellophane seal was removed from the holding container and the entrance to the holding container was gently connected to the central arm of the T-tube, allowing termites to crawl out and enter the apparatus. Bioassays were conducted for 15 min, after which the number of termites in each pitfall was recorded. CO2 measurements: Gas chromatography-mass spectrometry in selected ion monitoring mode (GC-MS-SIM) at m/e 44 was used to determine CO2 concentrations. A Hewlett-Packard Series II 5890 gas chromatograph interfaced with a Hewlett-Packard 5971 mass selective detector was used with a methyl silicone capillary column (30 m×0.32 mm inside diameter, RSL-150, Alltech, Deerfield, Ill.). […]

[3] = tested on: Reticulitermes tibialis; experiment: T-tube choice-test behavioral bioassay with CO2; type: in vivo
Experimental: as §1

[4] = tested on: Reticulitermes flavipes; experiment: T-tube choice-test behavioral bioassay with CO2; type: in vivo; settings: versus ambient air
Experimental: as §1

[5] = tested on: wireworm larvae; settings: Doane et al. (1975); cited from earlier work
[6] = tested on: western corn root worm larvae; settings: literature reports; cited from earlier work
[7] = tested on: plant-parasitic nematodes; settings: cited from earlier work

O=C=O [CO2, Carbon dioxide]
Selective response, attraction to higher CO2 concentration ([1]; 0.125 mmol/mol difference at higher base concentrations): no difference in attraction was observed in any of the tests at higher concentrations | Larvae attracted to CO2 side versus control side ([1]; 10 mmol/mol CO2 (10.43±0.18) versus ambient air, syringe sources): significantly more western corn root worm larvae (P<0.05) were attracted to the side containing 10 mmol/mol CO2 | Selective response, attraction to higher CO2 concentration ([1]; 1 versus 1.125 mmol/mol (actual 1.06±0.05 versus 1.18±0.05)): significantly greater attraction was observed to 1.125 mmol/mol than to 1 mmol/mol | Selective response, attraction to higher CO2 concentration ([1]; 1 versus 1.25 mmol/mol): more attracted to the higher CO2 concentration | Selective response, attraction to higher CO2 concentration ([1]; 1 versus 1.50 mmol/mol): Significantly more larvae were attracted | Selective response, attraction to higher CO2 concentration ([1]; 2 versus 2.25 mmol/mol): more attracted to the higher CO2 concentration | Selective response, attraction to higher CO2 concentration ([1]; 2 versus 2.50 mmol/mol): Significantly more larvae were attracted | Selective response, attraction to higher CO2 concentration ([1]; 5 versus 5.25 mmol/mol): no difference in attraction was observed | Selective response, attraction to higher CO2 concentration ([1]; 5 versus 5.50 mmol/mol): Significantly more larvae were attracted | Selective response, attraction to higher CO2 concentration ([1]; 10 versus 10.25 mmol/mol): no difference in attraction was observed | Selective response, attraction to higher CO2 concentration ([1]; 10 versus 10.50 mmol/mol): Significantly more larvae were attracted | Selective response, attraction to higher CO2 concentration ([1]; 20 versus 20.25 mmol/mol): no difference in attraction was observed | Selective response, attraction to higher CO2 concentration ([1]; 20 versus 20.50 mmol/mol): no difference in attraction was observed | Smallest difference between the 2 CO2 choices still attracting larvae to the higher concentration ([1]; base level 1 mmol/mol): 0.125 mmol/mol | CO2 excess over control at which larvae were 1st attracted ([1]; control contained 1, 2, 5, 10, and 20 mmol/mol CO2): 12.5% | Lowest CO2 concentration significantly attractive to neonate larvae ([1]; control side ambient air 0.99±0.02 mmol/mol): 1.125±0.04 mmol/mol | Highest concentration of CO2 to which larvae were attracted ([1]; dose-response, syringe sources): 100 mmol/mol and 85.6±1.20 mmol/mol | Most attractive (optimal) concentrations of CO2 ([1]; dose-response, syringe sources): 2.51-4.20 mmol/mol and 2.51±0.13 mmol/mol and 4.20±0.21 mmol/mol | Lowest concentration of CO2 attractive to the larvae ([1]; dose-response, syringe sources, control 0.91±0.03): 1.34±0.05 mmol/mol | CO2 concentration of best attraction [2]: 10 mmol per mol | Termites choosing CO2 side versus control side ([3]; 5 mmol/mol CO2 versus ambient air): significantly greater than the number that moved to the control side; also recorded: significantly more often; also recorded: Significantly more termites (p<0.05) were attracted to the side containing 5 mmol/mol CO2 than to the control side | CO2 concentration of best attraction ([3]; versus ambient air): 5 mmol per mol | CO2 concentrations to which termites were attracted ([3]; versus ambient air, 5 workers, 15 min): 10 mmol per mol and 20 mmol per mol | CO2 concentration of best attraction [4]: 10 mmol per mol | Smallest CO2 difference to which larvae respond [5]: 0.02% | Attraction of larvae reported in earlier publications [6]: highly attracted to CO2 | CO2 threshold for nematode response ([7]; higher baseline concentration (1.0%)): 0.05% | CO2 threshold for nematode response ([7]; low baseline levels of CO2 (0.1%)): 0.01%

ClCCl [dichloromethane, reference compound]
Attraction of larvae reported in earlier publications [6]: attractive to Diabrotica larvae
